# Reference: ChEMBL document CHEMBL1140275, “Discovery of a novel and potent series of dianilinopyrimidineurea and urea isostere inhibitors of VEGFR2 tyrosine kinase” (Bioorg Med Chem Lett, 2005)
# Tests used:
# HUVEC = test: Inhibitory concentration against human umbilical vein endothelial cells (HUVECs) induced by VEGF; type: functional, cell-based
# [1] = target: Vascular endothelial growth factor receptor 2 (Homo sapiens, UniProt P35968); test: Inhibitory concentration against human VEGFR2 kinase
# Sequence of Vascular endothelial growth factor receptor 2 (P35968 whole entry): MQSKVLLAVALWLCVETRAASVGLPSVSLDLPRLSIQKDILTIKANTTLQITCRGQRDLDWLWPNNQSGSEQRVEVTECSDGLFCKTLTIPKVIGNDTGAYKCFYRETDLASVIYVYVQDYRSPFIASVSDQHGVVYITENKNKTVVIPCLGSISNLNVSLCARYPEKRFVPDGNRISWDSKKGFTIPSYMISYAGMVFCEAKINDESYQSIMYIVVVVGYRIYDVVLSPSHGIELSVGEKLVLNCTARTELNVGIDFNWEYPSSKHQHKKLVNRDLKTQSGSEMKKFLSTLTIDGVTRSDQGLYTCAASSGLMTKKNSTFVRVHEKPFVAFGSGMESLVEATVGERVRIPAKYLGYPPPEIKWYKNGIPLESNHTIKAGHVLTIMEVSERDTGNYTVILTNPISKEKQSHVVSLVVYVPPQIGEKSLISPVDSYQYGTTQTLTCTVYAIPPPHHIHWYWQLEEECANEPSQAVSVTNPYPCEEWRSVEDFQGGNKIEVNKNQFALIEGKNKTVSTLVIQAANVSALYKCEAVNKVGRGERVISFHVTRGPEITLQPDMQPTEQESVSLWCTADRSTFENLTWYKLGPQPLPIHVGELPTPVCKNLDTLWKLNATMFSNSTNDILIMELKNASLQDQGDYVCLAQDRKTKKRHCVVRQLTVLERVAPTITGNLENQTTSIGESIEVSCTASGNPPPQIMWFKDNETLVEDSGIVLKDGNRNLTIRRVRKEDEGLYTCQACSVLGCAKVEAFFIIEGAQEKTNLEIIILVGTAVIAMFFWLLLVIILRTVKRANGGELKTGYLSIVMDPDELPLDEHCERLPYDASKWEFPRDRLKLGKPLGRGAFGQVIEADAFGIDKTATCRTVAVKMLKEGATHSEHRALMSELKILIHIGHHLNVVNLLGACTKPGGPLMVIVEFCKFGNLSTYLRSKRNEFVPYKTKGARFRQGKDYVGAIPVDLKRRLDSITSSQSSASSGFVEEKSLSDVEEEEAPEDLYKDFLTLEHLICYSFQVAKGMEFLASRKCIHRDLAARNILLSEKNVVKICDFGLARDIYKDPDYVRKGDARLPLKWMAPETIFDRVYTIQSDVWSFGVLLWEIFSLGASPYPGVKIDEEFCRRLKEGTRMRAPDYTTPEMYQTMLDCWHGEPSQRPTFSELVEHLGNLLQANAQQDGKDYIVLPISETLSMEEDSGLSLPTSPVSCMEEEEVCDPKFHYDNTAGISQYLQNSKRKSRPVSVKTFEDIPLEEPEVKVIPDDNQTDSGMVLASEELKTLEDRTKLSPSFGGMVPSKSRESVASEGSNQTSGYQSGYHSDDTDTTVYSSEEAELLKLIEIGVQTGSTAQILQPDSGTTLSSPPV
SMILES,IC50 [1] [nM],IC50 (HUVEC) [nM]
CN(c1ccc(NC(=O)Nc2ccccc2)cc1)c1ccnc(Nc2cccc(CS(C)(=O)=O)c2)n1,,0.2
CN(c1ccc(NC(=O)Nc2cc(C(F)(F)F)ccc2F)cc1)c1ccnc(Nc2ccc(S(N)(=O)=O)cc2)n1,1,8
CN(c1ccc(NC(=O)Oc2ccccc2)cc1)c1ccnc(Nc2cccc(CS(C)(=O)=O)c2)n1,,224
CN(c1ccc(NS(=O)(=O)Cc2ccccc2)cc1)c1ccnc(Nc2cccc(CS(C)(=O)=O)c2)n1,,350
CN1CCN(Cc2ccc(NC(=O)Nc3ccc(N(C)c4ccnc(Nc5ccc(CS(C)(=O)=O)cc5)n4)cc3)cc2)CC1,4,2
CN(C)CCNC(=O)Nc1ccc(N(C)c2ccnc(Nc3ccc(CS(C)(=O)=O)cc3)n2)cc1,3110,2980
CN(c1ccc(NC(=O)Nc2ccc(OC(F)(F)F)cc2)cc1)c1ccnc(Nc2ccc(S(N)(=O)=O)cc2)n1,2,37
CCCCNC(=O)Nc1ccc(N(C)c2ccnc(Nc3cccc(CS(C)(=O)=O)c3)n2)cc1,29,2
CN(c1ccc(NC(=N)Nc2ccccc2)cc1)c1ccnc(Nc2cccc(CS(C)(=O)=O)c2)n1,,596
CN(c1ccc(N/C(S)=N/c2ccccc2)cc1)c1ccnc(Nc2cccc(CS(C)(=O)=O)c2)n1,,6
CN(c1ccc(NC(=O)Cc2ccccc2)cc1)c1ccnc(Nc2cccc(CS(C)(=O)=O)c2)n1,,49
CN(c1ccc(NC(=O)Nc2cc(C(F)(F)F)ccc2F)cc1)c1ccnc(Nc2cccc(S(N)(=O)=O)c2)n1,1,10
CC(=O)c1ccc(NC(=O)Nc2ccc(N(C)c3ccnc(Nc4cccc(CS(C)(=O)=O)c4)n3)cc2)cc1,3,2
CN(c1ccc(NC(=O)Nc2ccccc2)cc1)c1ccnc(Nc2cccc(S(N)(=O)=O)c2)n1,,2
CN(c1ccc(NC(=O)NCCN2CCOCC2)cc1)c1ccnc(Nc2ccc(CS(C)(=O)=O)cc2)n1,990,471
CN(c1ccc(NC(=O)N2CCN(CCCN3CCOCC3)CC2)cc1)c1ccnc(Nc2ccc(CS(C)(=O)=O)cc2)n1,4490,850

# More lines, in order of falling IC50 [1], values ahead:
IC50 [1] [nM],SMILES,IC50 (HUVEC) [nM]
681,CN(C)CCNC(=O)Nc1ccc(N(C)c2ccnc(Nc3cccc(CS(C)(=O)=O)c3)n2)cc1,530
150,CN1CCN(C(=O)c2ccc(NC(=O)Nc3ccc(N(C)c4ccnc(Nc5ccc(CS(C)(=O)=O)cc5)n4)cc3)cc2)CC1,516
65,CN(c1ccc(NC(=O)Nc2c(Cl)cccc2Cl)cc1)c1ccnc(Nc2cccc(CS(C)(=O)=O)c2)n1 [GW809897X],29
35,CN(c1ccc(NC(=O)Nc2cc(C(F)(F)F)ccc2F)cc1)c1ccnc(Nc2cccc(CS(C)(=O)=O)c2)n1,7
31,CN(c1ccc(NC(=O)NC2CCCC2)cc1)c1ccnc(Nc2cccc(CS(C)(=O)=O)c2)n1,1
26,CCNC(=O)Nc1ccc(N(C)c2ccnc(Nc3ccc(CS(C)(=O)=O)cc3)n2)cc1,27
17,CCNC(=O)Nc1ccc(N(C)c2ccnc(Nc3cccc(CS(C)(=O)=O)c3)n2)cc1,3
11,CN(c1ccc(NC(=O)NCCc2ccccc2)cc1)c1ccnc(Nc2cccc(CS(C)(=O)=O)c2)n1,10
6,CN(c1ccc(NC(=O)Nc2ccc(OC(F)(F)F)cc2)cc1)c1ccnc(Nc2cccc(CS(C)(=O)=O)c2)n1,7
2,CN(c1ccc(NC(=O)Nc2cc(C(F)(F)F)ccc2F)cc1)c1ccnc(Nc2ccc(CS(C)(=O)=O)cc2)n1,2
2,CN(c1ccc(NC(=O)Nc2ccc(OC(F)(F)F)cc2)cc1)c1ccnc(Nc2cccc(S(N)(=O)=O)c2)n1 [GW806742X],5
